Test results published in patent publication US20240109972A1, “ANTIBODY AND TAXANE COMBINATION THERAPY” (Genmab A/S, priority 2020, published 2024).

Tested on: solid malignant tumors
Experiment: GEN1046 Phase I dose escalation (NCT03917381), response by RECIST v1.1
Assay type: in vivo, human
Excerpt: The resistance to, failure to respond to and/or relapse from treatment with a binding agent of the invention and/or other therapeutic agent(s) may be determined according to the Response Evaluation Criteria In Solid Tumors; version 1.1 (RECIST Criteria v1.1).
The “best overall response” is the best response recorded from the start of the treatment until disease progression/recurrence (the smallest measurements recorded since the treatment started will be used as the reference for PD). Subjects with CR or PR are considered to be objective response. Subjects with CR, PR or SD are considered to be in disease control. Subjects with NE are counted as non-responders. […]
Clinical trial on GCT1046-01 (ClinicalTrials.gov Identifier: NCT03917381) was designed as a two-part trial, including an ongoing dose escalation part and a planned expansion part.
The trial consists of 2 parts; a First-in-Human (FIH) dose escalation (Phase I) and an expansion (Phase 11a).
For dose escalation, subject was required to be a man or […] and was required to have measurable disease according to RECIST 1.1.

[1] = 80 mg (n = 8), uPR, 3 Feb. 2020

**Q.** For “GEN1046: PD-L1×4-1BB bispecific antibody: PD-L1-547-FEAL combined with CD137-009-HC7LC2-FEAR (SEQ ID NOs: 1, 5, 21, 19; 8, 12, 22, 20)”, which “Confirmed SD (Stable Disease), patients” value (80 mg (N 9), Oct. 12, 2020) is on record?
**A.** Its value is 7.

**Q.** What about the “Disease Control (PR + PR + SD) Rate, %” value (80 mg (N 9), Oct. 12, 2020) of the same substance?
**A.** The value was 88.9%.

**Q.** What about the “Disease Control (PR + PR + SD) Rate, patients” value (80 mg (N 9), Oct. 12, 2020) of the same substance?
**A.** Its value is 8.

**Q.** What about the “NE (Not Evaluable), patients” value (80 mg (N 9), Oct. 12, 2020) of the same substance?
**A.** The value was 0.

**Q.** And the “Objective Response (CR + PR) Rate, %” value (80 mg (N 9), Oct. 12, 2020)?
**A.** The value was 22.2%.

**Q.** And the “Objective Response (CR + PR) Rate, patients” value (80 mg (N 9), Oct. 12, 2020)?
**A.** The value was 2.

**Q.** What about the “PD (Progressive Disease), % of patients” value (80 mg (N 9), Oct. 12, 2020) of the same substance?
**A.** The value was 11.1%.

**Q.** What about the “PD (Progressive Disease), patients” value (80 mg (N 9), Oct. 12, 2020) of the same substance?
**A.** Its value is 1.

**Q.** What about the “PR (Partial Response), % of patients” value (80 mg (N 9), Oct. 12, 2020) of the same substance?
**A.** The value was 22.2%.

**Q.** What about the “PR (Partial Response), patients” value (80 mg (N 9), Oct. 12, 2020) of the same substance?
**A.** The value was 2.

**Q.** What about the “BOR Complete Response, (percent)” value (80 mg (n = 8), 3 Feb. 2020) of the same substance?
**A.** The value was “(0)”.

**Q.** What about the “BOR Complete Response, patients” value (80 mg (n = 8), 3 Feb. 2020) of the same substance?
**A.** Its value is 0.

**Q.** And the “BOR Progressive Disease, (percent)” value (80 mg (n = 8), 3 Feb. 2020)?
**A.** The value was “(12.5)”.

**Q.** And the “BOR Progressive Disease, patients” value (80 mg (n = 8), 3 Feb. 2020)?
**A.** The value was 1.

**Q.** What about the “BOR Stable Disease, (percent)” value (80 mg (n = 8), 3 Feb. 2020) of the same substance?
**A.** Its value is “(62.5)”.

**Q.** What about the “BOR Stable Disease, patients” value (80 mg (n = 8), 3 Feb. 2020) of the same substance?
**A.** The value was 5.

**Q.** What about the “BOR Partial Response, (percent)” value [1] of the same substance?
**A.** The value was “(25)”.

**Q.** And the “BOR Partial Response, patients” value [1]?
**A.** The value was 2^1.

**Q.** What about the “CR (Complete Response), patients” value (100 mg (N 6), Oct. 12, 2020) of the same substance?
**A.** The value was 0.

**Q.** What about the “Confirmed CR (Complete Response), patients” value (100 mg (N 6), Oct. 12, 2020) of the same substance?
**A.** Its value is 0.

**Q.** What about the “Confirmed Disease Control (PR + PR + SD) Rate, %” value (100 mg (N 6), Oct. 12, 2020) of the same substance?
**A.** Its value is 66.7%.

**Q.** What about the “Confirmed Disease Control (PR + PR + SD) Rate, patients” value (100 mg (N 6), Oct. 12, 2020) of the same substance?
**A.** Its value is 4.

**Q.** What about the “Confirmed NE (Not Evaluable), % of patients” value (100 mg (N 6), Oct. 12, 2020) of the same substance?
**A.** Its value is 33.3%.

**Q.** And the “Confirmed NE (Not Evaluable), patients” value (100 mg (N 6), Oct. 12, 2020)?
**A.** Its value is 2.

**Q.** What about the “Confirmed Objective Response (CR + PR) Rate, %” value (100 mg (N 6), Oct. 12, 2020) of the same substance?
**A.** Its value is 16.7%.

**Q.** And the “Confirmed Objective Response (CR + PR) Rate, patients” value (100 mg (N 6), Oct. 12, 2020)?
**A.** The value was 1.

**Q.** What about the “Confirmed PD (Progressive Disease), patients” value (100 mg (N 6), Oct. 12, 2020) of the same substance?
**A.** Its value is 0.

**Q.** What about the “Confirmed PR (Partial Response), % of patients” value (100 mg (N 6), Oct. 12, 2020) of the same substance?
**A.** Its value is 16.7%.

**Q.** What about the “Confirmed PR (Partial Response), patients” value (100 mg (N 6), Oct. 12, 2020) of the same substance?
**A.** Its value is 1.

**Q.** What about the “Confirmed SD (Stable Disease), % of patients” value (100 mg (N 6), Oct. 12, 2020) of the same substance?
**A.** Its value is 50.0%.

**Q.** And the “Confirmed SD (Stable Disease), patients” value (100 mg (N 6), Oct. 12, 2020)?
**A.** The value was 3.

**Q.** And the “Disease Control (PR + PR + SD) Rate, %” value (100 mg (N 6), Oct. 12, 2020)?
**A.** The value was 66.7%.

**Q.** And the “Disease Control (PR + PR + SD) Rate, patients” value (100 mg (N 6), Oct. 12, 2020)?
**A.** Its value is 4.

**Q.** And the “NE (Not Evaluable), % of patients” value (100 mg (N 6), Oct. 12, 2020)?
**A.** The value was 33.3%.

**Q.** And the “NE (Not Evaluable), patients” value (100 mg (N 6), Oct. 12, 2020)?
**A.** The value was 2.

**Q.** And the “Objective Response (CR + PR) Rate, %” value (100 mg (N 6), Oct. 12, 2020)?
**A.** Its value is 16.7%.

**Q.** And the “Objective Response (CR + PR) Rate, patients” value (100 mg (N 6), Oct. 12, 2020)?
**A.** The value was 1.

**Q.** And the “PD (Progressive Disease), patients” value (100 mg (N 6), Oct. 12, 2020)?
**A.** The value was 0.

**Q.** And the “PR (Partial Response), % of patients” value (100 mg (N 6), Oct. 12, 2020)?
**A.** Its value is 16.7%.

**Q.** And the “PR (Partial Response), patients” value (100 mg (N 6), Oct. 12, 2020)?
**A.** Its value is 1.

**Q.** And the “CR (Complete Response), patients” value (140 mg (N 6), Oct. 12, 2020)?
**A.** The value was 0.

**Q.** What about the “Confirmed CR (Complete Response), patients” value (140 mg (N 6), Oct. 12, 2020) of the same substance?
**A.** Its value is 0.

**Q.** What about the “Confirmed Disease Control (PR + PR + SD) Rate, %” value (140 mg (N 6), Oct. 12, 2020) of the same substance?
**A.** Its value is 50.0%.

**Q.** And the “Confirmed Disease Control (PR + PR + SD) Rate, patients” value (140 mg (N 6), Oct. 12, 2020)?
**A.** The value was 3.

**Q.** What about the “Confirmed NE (Not Evaluable), % of patients” value (140 mg (N 6), Oct. 12, 2020) of the same substance?
**A.** Its value is 16.7%.

**Q.** What about the “Confirmed NE (Not Evaluable), patients” value (140 mg (N 6), Oct. 12, 2020) of the same substance?
**A.** Its value is 1.

**Q.** What about the “Confirmed Objective Response (CR + PR) Rate, patients” value (140 mg (N 6), Oct. 12, 2020) of the same substance?
**A.** Its value is 0.

**Q.** What about the “Confirmed PD (Progressive Disease), % of patients” value (140 mg (N 6), Oct. 12, 2020) of the same substance?
**A.** Its value is 33.3%.

**Q.** And the “Confirmed PD (Progressive Disease), patients” value (140 mg (N 6), Oct. 12, 2020)?
**A.** The value was 2.

**Q.** And the “Confirmed PR (Partial Response), patients” value (140 mg (N 6), Oct. 12, 2020)?
**A.** The value was 0.

**Q.** And the “Confirmed SD (Stable Disease), % of patients” value (140 mg (N 6), Oct. 12, 2020)?
**A.** The value was 50.0%.

**Q.** What about the “Confirmed SD (Stable Disease), patients” value (140 mg (N 6), Oct. 12, 2020) of the same substance?
**A.** Its value is 3.

**Q.** What about the “Disease Control (PR + PR + SD) Rate, %” value (140 mg (N 6), Oct. 12, 2020) of the same substance?
**A.** Its value is 50.0%.

**Q.** What about the “Disease Control (PR + PR + SD) Rate, patients” value (140 mg (N 6), Oct. 12, 2020) of the same substance?
**A.** The value was 3.

**Q.** What about the “NE (Not Evaluable), % of patients” value (140 mg (N 6), Oct. 12, 2020) of the same substance?
**A.** The value was 16.7%.

**Q.** And the “NE (Not Evaluable), patients” value (140 mg (N 6), Oct. 12, 2020)?
**A.** Its value is 1.

**Q.** And the “Objective Response (CR + PR) Rate, patients” value (140 mg (N 6), Oct. 12, 2020)?
**A.** Its value is 0.

**Q.** What about the “PD (Progressive Disease), % of patients” value (140 mg (N 6), Oct. 12, 2020) of the same substance?
**A.** Its value is 33.3%.

**Q.** And the “PD (Progressive Disease), patients” value (140 mg (N 6), Oct. 12, 2020)?
**A.** The value was 2.

**Q.** And the “PR (Partial Response), patients” value (140 mg (N 6), Oct. 12, 2020)?
**A.** Its value is 0.

**Q.** What about the “BOR Complete Response, (percent)” value (140 mg (n = 1), 3 Feb. 2020) of the same substance?
**A.** Its value is “(0)”.

**Q.** What about the “BOR Complete Response, patients” value (140 mg (n = 1), 3 Feb. 2020) of the same substance?
**A.** The value was 0.

**Q.** What about the “BOR Partial Response, (percent)” value (140 mg (n = 1), 3 Feb. 2020) of the same substance?
**A.** The value was “(0)”.

**Q.** What about the “BOR Partial Response, patients” value (140 mg (n = 1), 3 Feb. 2020) of the same substance?
**A.** The value was 0.

**Q.** And the “BOR Progressive Disease, (percent)” value (140 mg (n = 1), 3 Feb. 2020)?
**A.** The value was “(100)”.

**Q.** And the “BOR Progressive Disease, patients” value (140 mg (n = 1), 3 Feb. 2020)?
**A.** The value was 1.
